Data from patent EP4752145A1, “DIAMINOCYCLOPENTYL SUBSTITUTED HETEROARYL DERIVATIVES, USE THEREOF AND PREPARATION METHOD THEREFOR” (Tuojie Biotech (Shanghai) Co., Ltd., priority 2023, dated 2025).

What was measured:
[1] = test system: LDLR protein level of HepG2 cells; assay: Effect on LDLR level of HepG2 cells stimulated with PCSK9 D374Y (human LDLR ELISA); type: cell-based; conditions: 75 µM compound; for LDLR up-regulation level" (% control): 4 nM PCSK9 D374Y, 48 h, mean of three duplicate wells; for LDLR protein level result relative to reference compound 1: fold of the result of reference compound 1
Description: HepG2 cells were seeded in a 96-well plate at 30,000 cells/well. The next day, 4 nM PCSK9 D374Y was added to each well to stimulate cells, and the cells were treated with a test compound at the same concentration. Three duplicate wells were set for each sample. The cells were cultured at 37 °C with 5% carbon dioxide for 48 h. The cells were washed twice with PBS, and the supernatant was discarded. The cells were then placed on ice and treated with an RIPA lysis buffer containing protease and phosphatase inhibitors at 50 µL/well. The cell culture plate was frozen overnight in a -80 °C freezer, thawed, then lysed on ice for 30 min, and then centrifuged at a low temperature for 15 min. The cell lysate was diluted 20-fold, and an ELISA was performed. A sample or a reference standard was added to a coated well plate at 50 µL/well, and the plate was incubated at room temperature for 2 h. The plate was washed 4 times with a washing buffer by aspiration, and a human LDLR conjugated antibody was added at 200 µL/well. The plate was incubated at room temperature for 2 h. The washing step was repeated, and a substrate solution was added at 200 µL/well. After 30 min, a stop solution was added at 50 µL/well, and the OD was measured at 450 nm. After the LDLR concentration in the sample wells was calculated according to a standard curve, the LDLR increase rate was calculated using the formula (sample value - mean of control wells) / mean of control wells. Data were processed using GraphPad Prism 8. Table 6. The effects of reference compound 1 and example compounds at a concentration of 75 µM on the LDLR protein level of HepG2 cells

PCSK9 (biotinylated) = PCSK9 (biotinylated) (Homo sapiens, UniProt Q8NBP7); assay: Binding of compounds to PCSK9 by SPR (BIAcore S200, SA chip); conditions: for Kd: SPR, immobilized biotinylated PCSK9, test compounds diluted 3-fold from 10 µM
Sequence of PCSK9 (biotinylated) (Q8NBP7 153-692): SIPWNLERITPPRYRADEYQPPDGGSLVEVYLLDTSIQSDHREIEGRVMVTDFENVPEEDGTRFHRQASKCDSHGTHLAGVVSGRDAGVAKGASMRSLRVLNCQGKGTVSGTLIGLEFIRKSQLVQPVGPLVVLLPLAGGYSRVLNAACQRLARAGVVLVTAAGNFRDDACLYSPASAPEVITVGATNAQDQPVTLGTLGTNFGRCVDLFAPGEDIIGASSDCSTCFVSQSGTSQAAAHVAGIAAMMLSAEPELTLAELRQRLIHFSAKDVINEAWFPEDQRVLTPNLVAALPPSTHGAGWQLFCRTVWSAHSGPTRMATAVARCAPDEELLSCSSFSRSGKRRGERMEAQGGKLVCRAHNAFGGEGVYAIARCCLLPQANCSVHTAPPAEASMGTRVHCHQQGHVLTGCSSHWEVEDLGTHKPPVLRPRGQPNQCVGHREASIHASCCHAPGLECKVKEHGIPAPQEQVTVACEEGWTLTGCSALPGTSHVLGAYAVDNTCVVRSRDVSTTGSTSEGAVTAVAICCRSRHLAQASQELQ
Description: Table 1. Main experimental materials and instruments
• 1) Protein: PCSK9 (biotinylated) (Acro). The protein was dissolved in water to 200 µg/mL, and the solution was stored at -80 °C. • 2) Chip: SA chip. • 3) Running buffer: 1 × HBSP + 4% DMSO + 0.1 mM CaCl2.
• 1) The chip was pre-warmed to room temperature. • 2) The required buffer was prepared and filtered through a 0.22 µm filter membrane. • 3) The chip was loaded, and parameters were written to the chip. • 4) The PCSK9 protein was diluted to 50 µg/mL in PBS. • 5) An immobilization program was set on the BIAcore S200 instrument. • 6) The immobilization program was run. • 7) The final immobilization response value was 8000 RU, and the maximum response value was 49.4 RU.
1) The compounds were serially diluted 3-fold in the running buffer. The reference compound was diluted 3-fold from 0.4 µM. The test compounds were diluted 3-fold from 10 µM. 2) A dissolution correction buffer was prepared according to the table below: Table 2. Dissolution correction buffer
3) The "LMW multi kinetics" program of the instrument was set as a running program for compound testing. • a) The association time was set at 100 s, and the dissociation time was set at 300 s. 4) The compound testing program was run.
1) Rmax = (MWanalyte/MWligand) × RL × Sm [formula] When affinity fitting was used to fit a curve, the response value of the highest concentration should be close to the fitted Rmax value for an optimal result. 2) Solvent correction and compound concentration gradients were checked. 3) The baseline, binding, and positive compound results in the test report were checked. 4) A suitable fitting method was selected according to the actual association to fit a curve. 5) Whether the fitting result met the data quality assessment criteria of the instrument was checked. Table 3. The binding of compounds of the present disclosure to PCSK9 (KD)

[2] = Stability test in hepatocytes (metabolic clearance rate); type: in vitro ADME; conditions: cryopreserved hepatocytes, mouse hepatocytes, 0.5 × 10^6 cells/mL, up to 120 min
Description: • 1) The test compounds and the control drug verapamil powder were dissolved in DMSO to prepare high-concentration stock solutions. Before use, the stock solutions were diluted with DMSO to prepare 100 µM working solutions. The final concentrations of the test compounds and verapamil were 1 µM. • 2) A tube of cryopreserved hepatocytes was taken. It was ensured that the hepatocytes were still in a low-temperature frozen state before thawing. The hepatocytes were quickly placed in a 37 °C water bath, gently shaken until all ice crystals were dispersed, sprayed with 70% ethanol, and then transferred to a biosafety cabinet. • 3) The contents of small tubes of hepatocytes from different species were poured into a centrifuge tube containing 50 mL of thawing culture medium and centrifuged at 100 g for 10 min. After centrifugation, the thawing culture medium was pipetted off, and a sufficient amount of incubation culture medium was added to obtain a cell suspension with a cell density of about 1.0 × 10^6 cells/mL. • 4) Hepatocytes were counted using Cellometer Vision, and the viable cell density was determined. The viability of hepatocytes must be greater than 75%. The hepatocyte suspension was diluted with the incubation culture medium to a viable cell density of 0.5 × 10^6 cells/mL. • 5) 198 µL of the viable cell suspension was transferred to a 96-well deep-well plate, and the deep-well plate was placed on a vortexer and pre-heated in an incubator for 10 min. In the experiment, the incubation was performed in duplicate. • 6) 2 µL of the 100 µM test compound or verapamil solution was added to each well to start a reaction, and the deep-well plate was placed back on the vortexer in the incubator. • 7) The samples were incubated. At 0 min, 15 min, 30 min, 60 min, 90 min, and 120 min, 25 µL of the suspension was taken, and 150 µL of acetonitrile containing an internal standard was added to stop the reaction. After 10 min of vortexing, the mixture was centrifuged at 3220 g at 4 °C for 45 min. […] After thorough mixing, the mixture was analyzed by UPLC-MS/MS.
All data calculations were performed through Microsoft Excel software. The peak areas were determined through an extracted ion chromatogram. Through linear fitting of the natural logarithm of the parent drug […] percentage versus time, the in vitro half-life (T1/2) of the parent drug was determined.
The in vitro half-life (T1/2) was calculated through the slope: In vitro T1/2 = 0.693/k [formula]
The in vitro clearance rate (in µL/min/10^6 cells) was calculated using the following formula: In vitro CLint = kV/N, [formula] • where V = the incubation volume per well (0.2 mL); • N = the number of cells per well (0.1 × 10^6 cells). […]

Mouse hepatocytes = assay: Metabolite testing in mouse hepatocytes (parent drug remaining); type: in vitro ADME, Mice; conditions: mouse hepatocytes (ICR/CD-1, male), 10 µM
Description: The objective of this experiment was to identify possible metabolites of a test compound in hepatocytes of different species and speculate about its possible metabolic pathway. The test concentration of the test compound was 10 µM.
Mouse hepatocytes were preserved in liquid nitrogen.
The test compound and the control drug verapamil powder were dissolved in DMSO to prepare high-concentration stock solutions. Before use, the stock solutions were diluted with DMSO to prepare 2 mM working solutions. The final concentrations of the test compound and verapamil were 10 µM.
• 1) Before use, the hepatocyte thawing solution and the incubation solution were placed in a 37 °C water bath and pre-heated for at least 15 min. • 2) A tube of cryopreserved hepatocytes was taken. […] After centrifugation, the thawing culture medium was pipetted off, and a sufficient amount of incubation culture medium was added to obtain a cell suspension with a cell density of about 1.5 × 10^6 cells/mL. • 4) Hepatocytes were counted using Cellometer Vision, and the viable cell density was determined. […]
• 1) 1 µL of the 2 mM test compound solution was pipetted into a 24-well incubation plate, and 199 µL of the hepatocyte suspension was then added to start a reaction. […] 60 µL of the supernatant was well mixed with 60 µL of purified water, and the mixture was then analyzed by UHPLC-MS/MS. […]

[3] = In vivo pharmacokinetic experiment in mice; conditions: oral, 10 mg/kg, fold of reference compound 1
Description: (§1) C57BL6J mice were used as test animals. […] Reference compound 1 and the example compound were both administered at a dose of 10 mg/kg. Procedure: Mice were intragastrically dosed with reference compound 1 and the example compound. At 0.25 h, 0.5 h, 1 h, 2 h, 4 h, 6 h, 8 h, and 24 h post-dose, blood samples (about 0.03 mL) were collected via peripheral venipuncture, placed into test tubes containing EDTA-K2, and centrifuged at around 4 °C at 4000 g per minute for 5 min to separate plasma, and the plasma was stored at -75 °C.
(§2) Determination of the content of the test compound in mouse plasma after the compound (at different concentrations) was orally administered: 10 µL of the mouse plasma collected at each time point post-dose was vortexed with 5 µL of a blank solution and 200 µL of a solution of dexamethasone (internal standard) in acetonitrile for 30 s. The mixture was centrifuged for 15 min (3900 rpm), and 12 µL of the supernatant was taken for LC/MS/MS analysis.

in vivo = conditions: male, C57BL6J, mouse, plasma, po, 10 mg/kg
Description: as §1, §2

| Structure (SMILES) | LDLR up-regulation level" (% control) [1] [% control] | Kd (PCSK9 (biotinylated)) [nM] | hepatocyte CLint at 1 µM [2] [µL/min/1e6 cells] | other results |
| --- | --- | --- | --- | --- |
| O=c1cccnn1-c1ccc(N[C@H]2CC[C@H](Nc3ncc4c(n3)OCCO4)C2)nc1 [Example 5, 2-(6-{[(1S,3S)-3-(6,7-Dihydro[1,4]dioxino[3,2-d]pyrimidin-2-ylamino)cyclopentyl]amino}pyridin-3-yl)-3H,2H-1,2-pyridazin-3-one] | 188 |  |  |  |
| O=c1ccccn1-c1ccc(N[C@H]2CC[C@H](Nc3ncc4ccccc4n3)C2)nc1 [Example 11, 1-(6-{[(1S,3S)-3-(Quinazolin-2-ylamino)cyclopentyl]amino}pyridin-3-yl)-1,2-dihydrop yridin-2-one] |  | 180 |  |  |
| O=c1ccccn1-c1ccc(N[C@H]2CC[C@H](Nc3ncc4sccc4n3)C2)nc1 [Reference compound 2, reference compound] |  |  | 15.7 |  |
| O=c1ccccn1-c1ccc(N[C@H]2CC[C@H](Nc3ncc4c(n3)C(F)(F)CC4)C2)nc1 [Example 2, 1-(6-{[(1S,3S)-3-[(7,7-Difluoro-6,7-dihydro-5H-cyclopenta[1,2-d]pyrimidin-2-yl)amino]cyclopentyl]amino}pyridin-3-yl)-1,2-dihydropyridin-2-one] |  | 68.7 | 21 |  |
| O=c1ccccn1-c1ccc(N[C@H]2CC[C@H](Nc3ncc4c(n3)CCC4)C2)nc1 [Example 1, 1-(6-{[(1S,3S)-3-(6,7-Dihydro-5H-cyclopenta[1,2-d]pyrimidin-2-ylamino)cyclopentyl]amino}pyridin-3-yl)-1,2-dihydropyridin-2-one] |  | 26.3 | 13.2 |  |
| O=c1ccccn1-c1cnc(N[C@H]2CC[C@H](Nc3ncc4c(n3)OCCO4)C2)cn1 [Example 7, 1-(5-{[(1S,3S)-3-(6,7-Dihydro[1,4]dioxino[3,2-d]pyrimidin-2-ylamino)cyclopentyl]amino}pyrazin-2-yl)-1,2-dihydropyridin-2-one] |  |  |  | LDLR protein level result relative to reference compound 1 [1]: 1.16 times |
| O=c1ccccn1-c1ccc(N[C@H]2CC[C@H](Nc3ncc4c(n3)OCCO4)C2)nc1 [Example 3, 1-(6-{[(1S,3S)-3-(6,7-Dihydro[1,4]dioxino[3,2-d]pyrimidin-2-ylamino)cyclopentyl]amino}pyridin-3-yl)-1,2-dihydropyridin-2-one] | 160 | 75.8 | < 0.1 | Normalized parent drug remaining proportion (%) after 240 min of incubation (Mouse hepatocytes): 98.3%; binding stronger than that of the reference compound 2 (PCSK9 (biotinylated); fold of binding strength versus reference compound 2): more than 10 times; plasma exposure level relative to reference compound 1 [3]: ~3 times; AUC(0-t) (in vivo): 48000 ng·h/mL; Cmax (in vivo): 11400 ng/mL; half-life (in vivo): 2.75 h |
| O=c1ccccn1-c1cnc(N[C@H]2CC[C@H](Nc3ncc4c(n3)OCCO4)C2)c(F)c1 [Example 6, 1-(5-Fluoro-6-{[(1S,3S)-3-(6,7-dihydro[1,4]dioxino[3,2-d]pyrimidin-2-ylamino)cyclopentyl]amino}pyridin-3-yl)-1,2-dihydropyridin-2-one] | 155 |  |  |  |
| O=C1c2ccccc2CN1c1cnc(N[C@H]2CC[C@H](Nc3ncc4c(n3)OCCO4)C2)cn1 [Example 8, 2-(5-{[(1S,3S)-3-(6,7-Dihydro[1,4]dioxino[3,2-d]pyrimidin-2-ylamino)cyclopentyl]amino}pyrazin-2-yl)-2,3-dihydro-1H-isoindol-1-one] |  |  |  | LDLR protein level result relative to reference compound 1 [1]: 1.04 times |
